Data as given in patent US20240059703A1 (AMGEN INC., priority 2021, published 2024).

Assays:
[1] = system: A549 (human lung carcinoma) cells; experiment: Cell Viability Assay (CellTiter-Glo), A549; assay type: cell-based
Method in brief: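 Luminescent ATP read-out (CellTiter-Glo) after 72 h compound treatment of cells seeded overnight at 1.67E+04 cells/mL in RPMI 1640, 10% FBS; signal relative to DMSO, IC50 by 4-parameter logistic model.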

[2] = system: MIA PaCa-2 (human pancreatic carcinoma) cells; experiment: Cell Viability Assay (CellTiter-Glo), MIA PaCa-2; assay type: cell-based
Description: Serially-diluted compound or DMSO was added to the cells, and plates were incubated at 37° C., 5% CO2 for 72 h. Cell viability was measured using a CellTiter-Glo® Luminescent Cell Viability Assay kit (Promega) according to the manufacturer's protocol. The luminescence signal of treated samples was normalized to DMSO control, and data were analyzed using a 4-parameter logistic model to calculate IC50 values.

KRAS G12C = KRAS G12C (Homo sapiens (Human), UniProt P01116, C118A/G12C); experiment: 2 h coupled exchange assay; assay type: biochemical; conditions: Avg 2 h Coupled exchange IC50, 2 h compound pre-incubation
Chain of KRAS G12C (P01116 other isoform, or with tags, fused parts or gaps G12C/C118A): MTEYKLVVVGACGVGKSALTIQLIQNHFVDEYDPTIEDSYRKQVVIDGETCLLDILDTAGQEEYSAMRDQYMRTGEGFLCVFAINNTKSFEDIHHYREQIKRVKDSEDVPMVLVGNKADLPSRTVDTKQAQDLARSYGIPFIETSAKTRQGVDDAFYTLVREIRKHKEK
Description: The term “2 h coupled exchange assay” or “20 h coupled exchange assay” as used herein refers to the assay described in the Section entitled “BIOLOGICAL EVALUATION.”

[3] = SOS-mediated nucleotide exchange

SMILES	IC50 ([1]; Homo sapiens, A549, 72 h)	IC50 ([2]; Homo sapiens, MIA PaCa-2, 72 h)	IC50 (KRAS G12C; [3])	IC50 ([1]; 72 h)	IC50 ([2]; 72 h)	IC50 (KRAS G12C)
C=CC(=O)N1CC2(CCN(c3nc4c(c(-c5c(C)ccc6cnn(C)c56)c3C#N)CCC3CC43)C2)C1 [Example 13-116, (6aR,7aS)-4-(1,6-dimethyl-1H-indazol-7-yl)-2-(2-(2-propenoyl)-2,6-diazaspiro[3.4]octan-6-yl)-6,6a,7,7a-tetrahydro-5H-cyclopropa[h]quinoline-3-carbonitrile|(6aS,7aR)-4-(1,6-dimethyl-1H-indazol-7-yl)-2-(2-(2-propenoyl)-2,6-diazaspiro[3.4]octan-6-yl)-6,6a,7,7a-tetrahydro-5H-cyclopropa[h]quinoline-3-carbonitrile]	> 5000 nM	775 nM	30 nM			
C=CC(=O)N1CC2(CCN(c3cc4c(c(-c5c(C)ccc6[nH]ncc56)c3C#N)COCC4)C2)C1 [Example 2-95, 8-(5-methyl-1H-indazol-4-yl)-6-(2-(2-propenoyl)-2,6-diazaspiro[3.4]octan-6-yl)-3,4-dihydro-1H-2-benzopyran-7-carbonitrile]	> 5000 nM	792 nM	88 nM			
C=CC(=O)N1CC2(CCN(c3nc4c(c(-c5cc(O)cc(Cl)c5C)c3C)COC(C)(C)C4)C2)C1 (single isomer, unassigned) [Example 12-43, (M)-1-(6-(4-(3-chloro-5-hydroxy-2-methylphenyl)-3,7,7-trimethyl-7,8-dihydro-5H-pyrano[4,3-b]pyridin-2-yl)-2,6-diazaspiro[3.4]octan-2-yl)prop-2-en-1-one]	> 5000 nM	82 nM	26 nM			
C=CC(=O)N1CC2(CCN(c3nc(-c4c(C)ccc5[nH]ncc45)c4ccc(OC)cc4n3)C2)C1 [Example 1-41, 1-(6-(7-methoxy-4-(5-methyl-1H-indazol-4-yl)-2-quinazolinyl)-2,6-diazaspiro[3.4]octan-2-yl)-2-propen-1-one]	> 5000 nM	> 5000 nM	882 nM			
C=CC(=O)N1CC2(CCN(c3nc4c(c(-c5ncccc5C)c3C#N)CCC(c3scnc3C)=C4)C2)C1 (single isomer, unassigned) [Example 23-26, (M)-4-(3-methyl-2-pyridinyl)-7-(4-methyl-1,3-thiazol-5-yl)-2-(2-(2-propenoyl)-2,6-diazaspiro[3.4]octan-6-yl)-5,6-dihydro-3-quinolinecarbonitrile]				13000 nM	1690 nM	551 nM
C=CC(=O)N1CC2(CCN(c3nc4c(c(-c5c(C)cnc6[nH]ncc56)c3C#N)CCC(C)(C)C4)C2)C1 [Example 13-151, 7,7-dimethyl-4-(5-methyl-1H-pyrazolo[3,4-b]pyridin-4-yl)-2-(2-(2-propenoyl)-2,6-diazaspiro[3.4]octan-6-yl)-5,6,7,8-tetrahydro-3-quinolinecarbonitrile]	9340 nM	1190 nM	149 nM			
C=CC(=O)N1CC2(CCN(c3nc4c(c(-c5c(C)ccc6cnn(C)c56)c3C#N)CC(C)(C)C4)C2)C1 (single isomer, unassigned) [Example 13-18, (P)-4-(1,6-dimethyl-1H-indazol-7-yl)-6,6-dimethyl-2-(2-(2-propenoyl)-2,6-diazaspiro[3.4]octan-6-yl)-6,7-dihydro-5H-cyclopenta[b]pyridine-3-carbonitrile]	> 5000 nM	180 nM	26 nM			
C=CC(=O)N1CC2(CCN(c3nc4c(c(-c5c(C)ccc6cnn(C)c56)c3C#N)CC[C@@H]3C[C@H]43)C2)C1 (single isomer, unassigned) [Example 13-136, (6a,7a)-4-(1,6-dimethyl-1H-indazol-7-yl)-2-(2-(2-propenoyl)-2,6-diazaspiro[3.4]octan-6-yl)-6,6a,7,7a-tetrahydro-5H-cyclopropa[h]quinoline-3-carbonitrile]	> 5000 nM	401 nM	78 nM			
C=CC(=O)N1CC2(CCN(c3nc4cc(-c5cncn5C)cnc4c(-c4ccccc4F)c3C#N)C2)C1 [Example 19-7, 4-(2-fluorophenyl)-7-(1-methyl-1H-imidazol-5-yl)-2-(2-(2-propenoyl)-2,6-diazaspiro[3.4]octan-6-yl)-1,5-naphthyridine-3-carbonitrile]	14100 nM	495 nM				789 nM
C=CC(=O)N1CC2(CCN(c3nc4c(c(-c5c(C)ccc6[nH]ncc56)c3C)CCN(C(C)C)C4)C2)C1 [Example 18-2, 1-(6-(3-methyl-4-(5-methyl-1H-indazol-4-yl)-7-(2-propanyl)-5,6,7,8-tetrahydro-1,7-naphthyridin-2-yl)-2,6-diazaspiro[3.4]octan-2-yl)-2-propen-1-one]	> 5000 nM	93 nM				268 nM
C=CC(=O)N1CC2(CCN(c3nc4c(c(-c5c(C)ccc6cnn(C)c56)c3C#N)C[C@H]3C[C@@H]4C3)C2)C1 [Example 13-110, (1S,9S)-6-(1,6-dimethyl-1H-indazol-7-yl)-4-(2-(2-propenoyl)-2,6-diazaspiro[3.4]octan-6-yl)-3-azatricyclo[7.1.1.0^2,7]undeca-2,4,6-triene-5-carbonitrile]	> 5000 nM	524 nM	73 nM			
C=CC(=O)N1CC2(CCN(c3nc4cc(F)ccc4c(-c4c(C)ccc5[nH]ncc45)c3C)[C@H]2C)C1 (single isomer, unassigned) [Example 2-61]			134 nM	> 5000 nM	1320 nM	
C=CC(=O)N1CC2(CCN(c3nc4c(c(-c5cc(O)ccc5C)c3C#N)[C@H]3CC[C@@H]4C3)C2)C1 (stereo in doubt) [Example 14-9, (1R,8S)-6-(5-hydroxy-2-methylphenyl)-4-(2-(2-propenoyl)-2,6-diazaspiro[3.4]octan-6-yl)-3-azatricyclo[6.2.1.0^2,7]undeca-2,4,6-triene-5-carbonitrile]	10400 nM	569 nM	91 nM			
C=CC(=O)N1CC2(CCN(c3nc4ccccc4c(-c4c(C)c(Cl)cc5[nH]ncc45)c3C#N)C2)C1 [Example 14-18, 4-(6-chloro-5-methyl-1H-indazol-4-yl)-2-(2-(2-propenoyl)-2,6-diazaspiro[3.4]octan-6-yl)-3-quinolinecarbonitrile]	> 5000 nM	324 nM				43 nM
C=CC(=O)N1CC2(CCN(c3nc4c(c(-c5c(F)cccc5Cl)c3C#N)COC(c3scnc3C)C4)C2)C1 [Example 23-36, (7R)-4-(2-chloro-6-fluorophenyl)-7-(4-methyl-1,3-thiazol-5-yl)-2-(2-(2-propenoyl)-2,6-diazaspiro[3.4]octan-6-yl)-7,8-dihydro-5H-pyrano[4,3-b]pyridine-3-carbonitrile (7S)-4-(2-chloro-6-fluorophenyl)-7-(4-methyl-1,3-thiazol-5-yl)-2-(2-(2-propenoyl)-2,6-diazaspiro[3.4]octan-6-yl)-7,8-dihydro-5H-pyrano[4,3-b]pyridine-3-carbonitrile]	9320 nM	1530 nM				272 nM
C=CC(=O)N1CC2(CCN(c3nc4c(c(-c5ccccc5Cl)c3C#N)COC(c3scnc3C)C4)C2)C1 [Example 23-15, (7R)-4-(2-chlorophenyl)-7-(4-methyl-1,3-thiazol-5-yl)-2-(2-(2-propenoyl)-2,6-diazaspiro[3.4]octan-6-yl)-7,8-dihydro-5H-pyrano[4,3-b]pyridine-3-carbonitrile (7S)-4-(2-chlorophenyl)-7-(4-methyl-1,3-thiazol-5-yl)-2-(2-(2-propenoyl)-2,6-diazaspiro[3.4]octan-6-yl)-7,8-dihydro-5H-pyrano[4,3-b]pyridine-3-carbonitrile]	> 5000 nM	972 nM				196 nM
C=CC(=O)N1CC2(CCN(c3nc4cc(OC)ccc4c(-c4c(C)ccc5[nH]ncc45)c3C#N)C2C)C1 [Example 14-21, 7-methoxy-4-(5-methyl-1H-indazol-4-yl)-2-((5R)-5-methyl-2-(2-propenoyl)-2,6-diazaspiro[3.4]octan-6-yl)-3-quinolinecarbonitrile|7-methoxy-4-(5-methyl-1H-indazol-4-yl)-2-((5S)-5-methyl-2-(2-propenoyl)-2,6-diazaspiro[3.4]octan-6-yl)-3-quinolinecarbonitrile]	> 5000 nM	447 nM				111 nM
C=CC(=O)N1CC2(CCN(c3nc4c(c(-c5c(N)c(Cl)cc(Cl)c5F)c3C#N)COC(C)(C)C4)C2)C1 [Example 13-154, 4-(2-amino-3,5-dichloro-6-fluorophenyl)-7,7-dimethyl-2-(2-(2-propenoyl)-2,6-diazaspiro[3.4]octan-6-yl)-7,8-dihydro-5H-pyrano[4,3-b]pyridine-3-carbonitrile]	> 5000 nM	776 nM	81 nM			
C=CC(=O)N1CC2(CCN(c3nc4c(c(-c5cc(O)ccc5Cl)c3C#N)CN(Cc3scnc3C)C4)C2)C1 [Example 21-12, 4-(2-chloro-5-hydroxyphenyl)-6-((4-methyl-1,3-thiazol-5-yl)methyl)-2-(2-(2-propenoyl)-2,6-diazaspiro[3.4]octan-6-yl)-6,7-dihydro-5H-pyrrolo[3,4-b]pyridine-3-carbonitrile]	> 25000 nM	5400 nM				393 nM
C=CC(=O)N1CC2(CCN(c3nc4c(c(-c5cccc(F)c5OC)c3C#N)CCC(c3scnc3C)=C4)C2)C1 [Example 23-53, 4-(3-fluoro-2-methoxyphenyl)-7-(4-methyl-1,3-thiazol-5-yl)-2-(2-(2-propenoyl)-2,6-diazaspiro[3.4]octan-6-yl)-5,6-dihydro-3-quinolinecarbonitrile]	8870 nM	1230 nM				391 nM
